Values quoted from earlier work as cited in patent US20050154058A1, “Method of preparing hydroxytyrosol esters, esters thus obtained and use of same” (priority 2002, published 2005).

Key:
[1] = state of the art, compared in words with free hydroxytyrosol or usual additives
[2] = state of the art

Row | solubility in lipophilic medium [2] | SMILES | antioxidant activity / protective capacity against oxidation [1]
1 | virtually insoluble in lipophilic medium | OCCc1ccc(O)c(O)c1 [Hydroxytyrosol, 2-(3,4-dihydroxyphenyl)ethanol] | much greater than the antioxidant additives normally used
2 | liposoluble | CC(=O)OCCc1ccc(O)c(O)c1 [Example 1, 2-(3,4-dihydroxyphenyl)ethyl Acetate] | the same activity towards oxidation as does free hydroxytyrosol itself
